Assay results reported in patent US20040034002A1, “3Alpha-hydroxy-3beta-methoxymethyl-substituted steroids and the use thereof” (Euro-Celtique S.A., priority 1999, published 2004).

How the values were obtained:
rat = experiment: Rotorod test (sedative/hypnotic activity and duration of action); type: in vivo; settings: for TD50: Rattus norvegicus, 1 min, read-out: RR TD50 po; for Duration of action: at lowest dose where all animals failed the rotorod test, time until all animals pass again; for Number of animals passing the rotorod test at 240 minutes: given for compounds with duration of action >240 minutes
Description: (§1) Table I below compares the in vitro potencies [ability to inhibit the binding of [^35S]-tert-butylbicyclophosphorothionate (TBPS)], rotorod TD50's (dose at which half of animals tested fail to stay on a rotating rod for 1 minute) and the length of time before all animals tested are able to pass rotorod test (duration of action) of closely structurally related pairs of 3β-methyl and 3β-methoxymethyl steroids. These methods for measuring in vitro and in vivo activity of compounds of the invention are fully described in U.S. Pat. No. 5,232,917. The TBPS assay gives the in vitro potency of compounds whereas the rotorod assay estimates the sedative/hypnotic activity of compounds. Since the duration of action of a compound is dependent on the dose and will be prolonged at higher doses, the duration of action was measured at the lowest dose where all of the animals failed the rotorod test. For compounds with duration of action >240 minutes, the number of animals passing the rotorod test at 240 minutes is given in parentheses. In each pair, the […] steroid has a biological duration action of greater than 240 minutes, while in each of the corresponding 3β-methoxymethyl steroids the duration of action is reduced to 180 minutes or less. […] Thus, specific 3β-methoxymethyl-substituted neuroactive steroids gave unique and unexpected pharmacokinetic profiles, making them especially useful as sedative/hypnotic and anesthetic agents.

[1] = molecular target: [35S]-tert-butylbicyclophosphorothionate (TBPS) binding; experiment: Inhibition of [35S]-TBPS binding (in vitro potency); design: species or system rat; settings: dose of steroid inhibiting 50% of specific binding of [35S]-TBPS
Description: as §1

[2] = po, po, dose at which half of animals fail to stay on a rotating rod for 1 minute

SMILES	TD50 (rat; [2]) [mg/kg]	Duration of action (rat) [min]	IC50 [1] [nM]	Number of animals passing the rotorod test at 240 minutes (rat)	RR TD50 po (rat; po, dose at which half of animals fail to stay on a rotating rod for 1 minute) [mg/kg]	melting point [°C]
COCC1(O)CCC2(C)C(CCC3C2CCC2(C)C(C(=O)Cn4ncnn4)CCC32)C1 (stereo not drawn) [3α-Hydroxy-3β-methoxymethyl-21-(2′-tetrazolyl)-5α-pregnan-20-one]	35	120	24			
COCC1(O)CCC2(C)C(CCC3C2CCC2(C)C(C(=O)COc4ccc5c(ccc[n+]5[O-])c4)CCC32)C1 (stereo not drawn) [3α-Hydroxy-3β-methoxymethyl-21-(quinolin-6-yloxy)-5α-pregnan-20-one, N-oxide]	29	84	25			
CC1(O)CCC2(C)C(CCC3C2CCC2(C)C(C(=O)Cn4ncnn4)CCC32)C1 (stereo not drawn) [3α-Hydroxy-3β-methyl-21-(2′-tetrazolyl)-5α-pregnan-20-one, reference compound]	4.5	>240	44	(0/8		
CC1(O)CCC2(C)C(CCC3C2CCC2(C)C(C(=O)COc4ccc5c(ccc[n+]5[O-])c4)CCC32)C1 (stereo not drawn) [3α-Hydroxy-3β-methyl-21-(quinolin-6-yloxy)-5α-pregnan-20-one, N-oxide, reference compound]	15	>240	46	(1/8		
COCC1(O)CCC2(C)C(CCC3C2CCC2(C)C(C(=O)Cn4ccnc4)CCC32)C1 (stereo not drawn) [3α-Hydroxy-21-(1′-imidazolyl)-3β-methoxymethyl-5α-pregnan-20] [3α-Hydroxy-21-(1′-imidazolyl)-3β-methoxymethyl-5α-pregnan-20-one]		140	138		28	
COCC1(O)CCC2(C)C(CCC3C2CCC2(C)C(C(=O)Cn4ccnc4)CCC32)C1 (stereo not drawn) [3α-Hydroxy-21-(1′-imidazolyl)-3β-methoxymethyl-5β-pregnan-20-one]	30					
COCC1(O)CCC2(C)C(CCC3C2CCC2(C)C(C(=O)Cn4ccnc4)CCC32)C1 (stereo not drawn) [3α-Hydroxy-21-(1′-imidazolyl)-3β-methoxymethyl-5β-pregnan-20] [3α-Hydroxy-21-(1′-imidazolyl)-3β-methoxymethyl-5β-pregnan-20-one]		<180	174			
CC1(O)CCC2(C)C(CCC3C2CCC2(C)C(C(=O)Cn4ccnc4)CCC32)C1 (stereo not drawn) [3α-Hydroxy-21-(1′-imidazolyl)-3β-methyl-5α-pregnan-20-one, reference compound]	31	>240	97	(3/8		
COCC1(O)CCC2(C)C(CCC3C2CCC2(C)C(C(=O)CSc4nnc(N)s4)CCC32)C1 (stereo not drawn) [21-(5′-Amino-[1,3,4]-thiadiazol-2-ylthio)-3 α-hydroxy-3β-methoxymethyl-5α-pregnan-20-one]	40	<90	48			169 to 172
